Test results reported in patent US20200237743A1, “CRAC CHANNEL MODULATORS FOR TREATING ESOPHAGEAL CANCER” (Rhizen Pharmaceuticals SA, priority 2017, published 2020).

What was measured:
[1] = system: NF-κB/p65 nuclear translocation in KYSE-150 cells; experiment: NF-κB/p65 nuclear translocation upon serum stimulation in ESCC cells; format: cell-based, human; conditions: 10% FBS stimulation 1 h (about 84% without treatment)
Description: (§1) Compound (A) was tested on blocking nuclear factor kappa B (NF-κB/p65) nuclear translocation upon serum stimulation in ESCC cells. KYSE-150 cells were starved in medium supplemented with 0.1% FBS for 24 h. […] Upon 10% FBS stimulation for 1 h, NF-κB/p65 appeared to translocate to nuclei evidenced by co-localization of nuclei in about 84% of KYSE-150 cells.

[2] = system: KYSE-150 mouse xenograft model; experiment: Anti-tumor effect in esophageal cancer xenograft; format: in vivo; conditions: 20 mg/kg intra-peritoneal every 2 days for 2 weeks, KYSE-150 xenograft mice
Description: (§2) The anti-tumor effect of Compound (A) was determined in a KYSE-150 mouse xenograft model. Briefly, 10^6 cells were injected into the flank region. Mice were randomized according to body weight into two groups of five. A week after tumor cell injection, mice either received the vehicle or intra-peritoneal administration of Compound (A) at 20 mg/kg every 2 days for a 2 week period. At the end of the study period, animals were sacrificed and the tumors harvested.

[3] = system: NF-κB/p65 in tumor tissues; experiment: Immunofluorescence staining of xenograft tumor tissues (nuclear NF-κB/p65, cyclin D1); format: in vivo, mouse
Description: as §2, §1

KYSE-70 = experiment: Anti-proliferative effect in human ESCC cell lines (MTT assay); format: cell-based; conditions: KYSE-70, MTT, 48-72 h incubation, read-out: IC50, cell viability
Description: (§3) ESCC cell lines (KYSE-30, KYSE-150, KYSE-790, and KYSE-70) were plated in 96-well plates and incubated with desired concentrations of Compound A for 48-72 h. At the end of the incubation period, MTT (3-(4,5-dimethylthiazol-2-yl)-2,5-diphenyltetrazolium bromide) was added. The plate was placed on a shaker for 5 min to mix the formazan and the optical density at 560 nm was measured on a spectrophotometer. Data were plotted using Graphpad Prism for calculation of the IC50 concentrations.

KYSE-150 = experiment: as above; format: cell-based; conditions: KYSE-150, MTT, 48-72 h incubation, read-out: IC50, cell viability
Description: as §3

KYSE-30 = experiment: as above; format: cell-based; conditions: KYSE-30, MTT, 48-72 h incubation, read-out: IC50, cell viability
Description: as §3

KYSE-780 = experiment: as above; format: cell-based; conditions: KYSE-780, MTT, 48-72 h incubation, read-out: IC50, cell viability

Cc1nnsc1C(=O)Nc1ccc(-n2nc(C(F)(F)F)cc2C(F)(F)F)cc1 [BTP-2, reference compound]
number of cells with NF-κB/p65 nuclear localization ([1]; 20 μM): 8.53%

O=C(Cc1ccc2ncccc2c1)Nc1ccc(-n2nc(C3CC3)cc2C2CC2)cc1 [Compound (A), N-(4-(3,5-dicyclopropyl-1H-pyrazol-1-yl)phenyl)-2-(quinolin-6-yl)acetamide]
number of cells with NF-κB/p65 nuclear localization ([1]; 10 μM): 10.52%
tumor growth compared to vehicle treated control group [2]: significantly reduced tumor growth
nuclear NF-κB/p65 positive cells number in tumor tissues ([3]; immunofluorescence of tumor tissues, 41% in control animals): 9%
expression of cyclin D1 in tumors compared with control group animals ([3]; tumors removed from treated animals): dramatically reduced
IC50 (KYSE-70): 1.4 µM
IC50 (KYSE-150): 1.4 µM
IC50 (KYSE-30): 1.2 µM
IC50 (KYSE-780): 5.5 µM
